Key:
Coq6p-MBP (Coq6p) = biological target: T1, Coq6p-MBP (Coq6p) (Saccharomyces cerevisiae, UniProt P53318); details: co-purified cofactor; tetrameric Coq6p-MBP, purified in Tris-HCl pH 7.5
T1 construct: gene COQ6

[1] = biological target: the molecule itself; assay: SEC; gel filtration on Superdex 200 10/300 GL calibrated with standards of known molecular mass (Bio-Rad); purified Coq6p-MBP

T1 sequence (P53318 whole entry): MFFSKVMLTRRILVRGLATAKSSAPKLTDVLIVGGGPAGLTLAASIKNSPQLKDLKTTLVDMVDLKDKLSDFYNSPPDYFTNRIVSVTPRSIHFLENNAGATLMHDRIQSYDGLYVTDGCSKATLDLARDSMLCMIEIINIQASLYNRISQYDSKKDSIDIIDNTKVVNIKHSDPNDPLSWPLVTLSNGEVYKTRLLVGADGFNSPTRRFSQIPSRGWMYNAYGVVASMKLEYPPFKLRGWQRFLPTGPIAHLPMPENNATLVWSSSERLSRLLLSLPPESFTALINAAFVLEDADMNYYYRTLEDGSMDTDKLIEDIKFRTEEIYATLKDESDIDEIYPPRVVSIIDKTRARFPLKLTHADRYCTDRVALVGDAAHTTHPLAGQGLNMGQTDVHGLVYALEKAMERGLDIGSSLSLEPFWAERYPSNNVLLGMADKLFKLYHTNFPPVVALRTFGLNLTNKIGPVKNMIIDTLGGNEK

Cc1cc2nc3c(=O)[nH]c(=O)nc-3n(C[C@H](O)[C@H](O)[C@H](O)COP(=O)(O)OP(=O)(O)OC[C@H]3O[C@@H](n4cnc5c(N)ncnc54)[C@H](O)[C@@H]3O)c2cc1C [FAD]
FAD occupancy per monomer (Coq6p-MBP (Coq6p)): ~ 85%

B1: Coq6p-MBP fusion protein (enzyme, S. cerevisiae, UniProt P53318 18-479, looked up)
chain: ATAKSSAPKLTDVLIVGGGPAGLTLAASIKNSPQLKDLKTTLVDMVDLKDKLSDFYNSPPDYFTNRIVSVTPRSIHFLENNAGATLMHDRIQSYDGLYVTDGCSKATLDLARDSMLCMIEIINIQASLYNRISQYDSKKDSIDIIDNTKVVNIKHSDPNDPLSWPLVTLSNGEVYKTRLLVGADGFNSPTRRFSQIPSRGWMYNAYGVVASMKLEYPPFKLRGWQRFLPTGPIAHLPMPENNATLVWSSSERLSRLLLSLPPESFTALINAAFVLEDADMNYYYRTLEDGSMDTDKLIEDIKFRTEEIYATLKDESDIDEIYPPRVVSIIDKTRARFPLKLTHADRYCTDRVALVGDAAHTTHPLAGQGLNMGQTDVHGLVYALEKAMERGLDIGSSLSLEPFWAERYPSNNVLLGMADKLFKLYHTNFPPVVALRTFGLNLTNKIGPVKNMIIDTLGGNEK
notes: Coq6p, FAD-dependent monooxygenase of ubiquinone biosynthesis, S. cerevisiae, UniProt P53318; coq6 gene optimised for E. coli and cloned in pMAL-c2X between BamHI and EcoRI downstream of malE; Printed mass of the fusion is 96.3 kDa with an MBP tag of 45 kDa, which would fit the whole 479-residue Coq6p (my surmise); source: E. coli BL21 (DE3) co-transformed with pMALc2x-Coq6p and pGro7 …
stoichiometry N [1]: 4

— publication PMC4726752, “Coenzyme Q Biosynthesis: Evidence for a Substrate Access Channel in the FAD-Dependent Monooxygenase Coq6” (PLoS Computational Biology, 2016)
